Some test systems named below: DMS 273 small cell lung; HCC-2998 colon; KM20L2 colon; M14 melanoma; MOLT-4 leukemia; NCI-H522 lung; OVCAR-8 ovarian; SW-620 colon; T-47D breast; DU-145 prostate.
Holding throughout (assay): NCI-60 cell line screen, 48 h

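Cells were grown in 96-well plates and exposed to each compound for 48 hours at five concentrations; endpoints were interpolated linearly between bracketing concentrations, or set to the highest concentration if not reached. GI50 is the concentration that inhibits growth by half. TGI: total growth inhibition.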

On to `C#CCOCn1cnc2c(N)ncnc21`, for which the TGI in the assay with DMS 273 small cell lung, in the assay with HCC-2998 colon, in the assay on KM20L2 colon, in the assay on M14 melanoma, in the assay on MOLT-4 leukemia and with NCI-H522 lung was greater than 100 µM throughout. In addition, the TGI with OVCAR-8 ovarian and in the assay with SW-620 colon was greater than 100 µM in each case.

On to `Nc1ncnc2c1N=CN(Oc1ccccc1)N2`, for which the TGI in the assay on DMS 273 small cell lung, with KM20L2 colon, in the assay with M14 melanoma, in the assay on MOLT-4 leukemia, with OVCAR-8 ovarian and in the assay with SW-620 colon was greater than 100 µM each time.

As to `CC(C)CCCC(C)[C@H]1CCC2C3CC=C4C[C@@H](OC(=O)CC(CC(=O)[O-])C(=O)[O-])CC[C@]4(C)C3CC[C@@]21C.N.N.[Pt+4]` (stereo partly drawn), the GI50 in the assay on DMS 273 small cell lung, with KM20L2 colon, in the assay with M14 melanoma, in the assay with OVCAR-8 ovarian and with SW-620 colon was greater than 100 µM in each case. Moreover, the TGI with DMS 273 small cell lung, in the assay on KM20L2 colon, in the assay with M14 melanoma, in the assay on OVCAR-8 ovarian and in the assay with SW-620 colon was greater than 100 µM each time.

As for `N#CC1=C(N)Oc2c(ccc3cccnc23)C1c1ccccc1` (stereo not drawn), the TGI in the assay with DMS 273 small cell lung was greater than 100 µM; in the assay on HCC-2998 colon, greater than 100 µM; in the assay with M14 melanoma it was greater than 41.5 µM; with MOLT-4 leukemia, 36.9 µM; with NCI-H522 lung it was 12.7 µM; with OVCAR-8 ovarian it was greater than 100 µM. In addition, the TGI in the assay on SW-620 colon is greater than 100 µM; in the assay with T-47D breast, 65.6 µM. In addition, the GI50 is 0.299 µM with NCI-H522 lung and 1.45 µM with T-47D breast.

For `CNC(=O)NCCCCC(NC(=O)OCc1ccccc1)C(=O)OCc1ccccc1` (stereo not drawn), the TGI with DMS 273 small cell lung was greater than 100 µM; with HCC-2998 colon, 36.9 µM; in the assay on KM20L2 colon, greater than 100 µM; in the assay with M14 melanoma it was 31.3 µM; in the assay on MOLT-4 leukemia, 40.9 µM; with NCI-H522 lung it was 28.3 µM. Moreover, the TGI with OVCAR-8 ovarian is 67.2 µM; in the assay with SW-620 colon, greater than 100 µM.

Consider `CC(C)(C)c1cc(C#N)c2c(c1)C(=O)OC2(c1ccccc1)c1ccccc1C#N` (stereo not drawn), for which the TGI with DMS 273 small cell lung, in the assay with KM20L2 colon, in the assay with M14 melanoma, in the assay with MOLT-4 leukemia, in the assay with NCI-H522 lung and with OVCAR-8 ovarian was greater than 100 µM in each case. Moreover, the TGI in the assay on SW-620 colon is greater than 100 µM.

In the case of `CC1=C(C(=O)NCc2ccccc2)C(c2ccc(N(C)C)cc2)C(C(=O)NCc2ccccc2)=C(C)N1`, the TGI in the assay on DMS 273 small cell lung, in the assay on HCC-2998 colon, in the assay on KM20L2 colon, in the assay on M14 melanoma, with MOLT-4 leukemia and in the assay with NCI-H522 lung was greater than 100 µM throughout. Also, the TGI with OVCAR-8 ovarian and with SW-620 colon was greater than 100 µM each time.

As to `Nc1n[nH]c2cc(F)c([C@@H]3Nc4c(F)cc5[nH]ncc5c4[C@H]4C5CCC(C5)[C@@H]34)cc12` (stereo partly drawn), the GI50 in the assay on DU-145 prostate was 0.157 µM; in the assay with HCC-2998 colon it was 0.118 µM; in the assay on M14 melanoma, 0.107 µM; with MOLT-4 leukemia, 0.145 µM; with NCI-H522 lung, 0.0932 µM; in the assay on OVCAR-8 ovarian it was 0.136 µM. Also, the GI50 in the assay with SW-620 colon was 0.141 µM; with T-47D breast, 5.89 µM. Further, the TGI in the assay on DU-145 prostate amounted to 7.97 µM; in the assay on HCC-2998 colon, 4.5 µM; in the assay with M14 melanoma, 5.83 µM; in the assay on MOLT-4 leukemia, 14.1 µM; in the assay with NCI-H522 lung, 2.22 µM; with OVCAR-8 ovarian, 15.2 µM. Also, the TGI in the assay with SW-620 colon was found to be 6.72 µM; in the assay on T-47D breast, 26.6 µM.

With `CN1CCC(n2cnc(-c3ccc(F)cc3)c2-c2ccnc(Nc3ccccc3)n2)CC1`, the GI50 is 10.4 µM in the assay with DU-145 prostate; 6.76 µM with HCC-2998 colon; 5.58 µM in the assay with M14 melanoma; 12 µM in the assay with MOLT-4 leukemia; 5.73 µM in the assay with NCI-H522 lung; 8.86 µM with OVCAR-8 ovarian. Also, the GI50 in the assay on SW-620 colon was 7.88 µM; in the assay on T-47D breast it was 6.85 µM. For the same compound, the TGI is greater than 25 µM in the assay with DU-145 prostate; greater than 25 µM in the assay on HCC-2998 colon; 14.7 µM with M14 melanoma; greater than 25 µM in the assay with MOLT-4 leukemia; greater than 15.7 µM with NCI-H522 lung; greater than 25 µM with OVCAR-8 ovarian. Moreover, the TGI in the assay on SW-620 colon and in the assay with T-47D breast was greater than 25 µM throughout.

As to `Cc1cccc(/C=N/N=C(\N)NO)n1`, the TGI with DMS 273 small cell lung, in the assay with HCC-2998 colon, in the assay on M14 melanoma, in the assay on MOLT-4 leukemia, in the assay with NCI-H522 lung and with OVCAR-8 ovarian was greater than 100 µM throughout. Moreover, in the assay on SW-620 colon, the TGI was greater than 100 µM.

Turning to `CC/C(=N/O)C(C)C(=O)CCC(=O)Nc1ccc(Cl)cc1` (stereo not drawn), the TGI in the assay on DMS 273 small cell lung, in the assay with HCC-2998 colon, in the assay with KM20L2 colon, with M14 melanoma, in the assay with MOLT-4 leukemia and in the assay with OVCAR-8 ovarian was greater than 100 µM each time. In addition, the TGI in the assay with SW-620 colon is greater than 100 µM.

For the compound `COc1cc(NC(=O)c2cc3ccccc3cc2O)c(OC)cc1Cl`, the GI50 was 2.67 µM in the assay on DU-145 prostate; 2.68 µM in the assay with HCC-2998 colon; 2.74 µM with M14 melanoma; 2.27 µM in the assay with MOLT-4 leukemia; 1.89 µM in the assay on NCI-H522 lung; 2.84 µM with OVCAR-8 ovarian. Also, the GI50 is 3.08 µM in the assay with SW-620 colon and 1.8 µM with T-47D breast. Besides, the TGI is 8.07 µM in the assay with DU-145 prostate; 7.72 µM in the assay on HCC-2998 colon; greater than 100 µM in the assay on M14 melanoma; 9.41 µM with NCI-H522 lung; greater than 32.8 µM with OVCAR-8 ovarian; greater than 34.5 µM with SW-620 colon. In the assay with T-47D breast, this compound registered a TGI of 6.15 µM.

These data come from PubChem BioAssay (NCI).
